Reference: paper PMC7156458, “Synthetic biology based construction of biological activity-related library of fungal decalin-containing diterpenoid pyrones” (Nature Communications, 2020)

Target: Aβ42 (Homo sapiens, UniProt P05067)
Experiment: Th-T (thioflavin-T) assay of Aβ42 aggregation
Assay type: biochemical
Settings: for Th-T fluorescence, mean of three wells: compound at 50

Aβ42, sequence (P05067 672-713): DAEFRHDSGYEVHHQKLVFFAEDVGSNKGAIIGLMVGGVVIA

C=C1CCC2C(C)(CCC=C(C)C)C(O)CCC2(C)C1Cc1c(OC)oc(CO)c(C)c1=O (stereo not drawn) [Compound 12]
Th-T fluorescence, mean of three wells (reading M54 of time course): 1.475 | Th-T fluorescence, mean of three wells (reading M55 of time course): 1.456 | Th-T fluorescence, mean of three wells (reading M56 of time course): 1.467 | Th-T fluorescence, mean of three wells (reading M57 of time course): 1.475 | Th-T fluorescence, mean of three wells (reading M58 of time course): 1.462 | Th-T fluorescence, mean of three wells (reading M59 of time course): 1.454 | Th-T fluorescence, mean of three wells (reading M60 of time course): 1.444 | Th-T fluorescence, mean of three wells (reading M61 of time course): 1.462 | Th-T fluorescence, mean of three wells (reading M62 of time course): 1.445 | Th-T fluorescence of Aβ42 with compound, mean of three wells (Fig. 7a source data) (concentration 10, unit not given, time-course reading M129): 2.41 | Th-T fluorescence of Aβ42 with compound, mean of three wells (Fig. 7a source data) (concentration 10, unit not given, time-course reading M130): 2.392 | Th-T fluorescence of Aβ42 with compound, mean of three wells (Fig. 7a source data) (concentration 10, unit not given, time-course reading M131): 2.376 | Th-T fluorescence of Aβ42 with compound, mean of three wells (Fig. 7a source data) (concentration 10, unit not given, time-course reading M132): 2.3677 | Th-T fluorescence of Aβ42 with compound, mean of three wells (Fig. 7a source data) (concentration 10, unit not given, time-course reading M133): 2.357 | Th-T fluorescence of Aβ42 with compound, mean of three wells (Fig. 7a source data) (concentration 10, unit not given, time-course reading M134): 2.346 | Th-T fluorescence of Aβ42 with compound, mean of three wells (Fig. 7a source data) (concentration 10, unit not given, time-course reading M135): 2.32 | Th-T fluorescence of Aβ42 with compound, mean of three wells (Fig. 7a source data) (concentration 10, unit not given, time-course reading M136): 2.323 | Th-T fluorescence of Aβ42 with compound, mean of three wells (Fig. 7a source data) (concentration 10, unit not given, time-course reading M137): 2.294 | Th-T fluorescence of Aβ42 with compound, mean of three wells (Fig. 7a source data) (concentration 10, unit not given, time-course reading M138): 2.29 | Th-T fluorescence of Aβ42 with compound, mean of three wells (Fig. 7a source data) (concentration 10, unit not given, time-course reading M139): 2.265 | Th-T fluorescence of Aβ42 with compound, mean of three wells (Fig. 7a source data) (concentration 10, unit not given, time-course reading M140): 2.265 | Th-T fluorescence of Aβ42 with compound, mean of three wells (Fig. 7a source data) (concentration 10, unit not given, time-course reading M141): 2.2429 | Th-T fluorescence of Aβ42 with compound, mean of three wells (Fig. 7a source data) (concentration 10, unit not given, time-course reading M142): 2.235 | Th-T fluorescence of Aβ42 with compound, mean of three wells (Fig. 7a source data) (concentration 10, unit not given, time-course reading M143): 2.219 | Th-T fluorescence of Aβ42 with compound, mean of three wells (Fig. 7a source data) (concentration 10, unit not given, time-course reading M144): 2.211 | Th-T fluorescence of Aβ42 with compound, mean of three wells (Fig. 7a source data) (concentration 10, unit not given, time-course reading M145): 2.191 | Th-T fluorescence of Aβ42 with compound, mean of three wells (Fig. 7a source data) (concentration 20, unit not given, time-course reading M129): 2.166 | Th-T fluorescence of Aβ42 with compound, mean of three wells (Fig. 7a source data) (concentration 20, unit not given, time-course reading M130): 2.19 | Th-T fluorescence of Aβ42 with compound, mean of three wells (Fig. 7a source data) (concentration 20, unit not given, time-course reading M131): 2.201 | Th-T fluorescence of Aβ42 with compound, mean of three wells (Fig. 7a source data) (concentration 20, unit not given, time-course reading M132): 2.206 | Th-T fluorescence of Aβ42 with compound, mean of three wells (Fig. 7a source data) (concentration 20, unit not given, time-course reading M133): 2.24 | Th-T fluorescence of Aβ42 with compound, mean of three wells (Fig. 7a source data) (concentration 20, unit not given, time-course reading M134): 2.215 | Th-T fluorescence of Aβ42 with compound, mean of three wells (Fig. 7a source data) (concentration 20, unit not given, time-course reading M135): 2.232 | Th-T fluorescence of Aβ42 with compound, mean of three wells (Fig. 7a source data) (concentration 20, unit not given, time-course reading M136): 2.218 | Th-T fluorescence of Aβ42 with compound, mean of three wells (Fig. 7a source data) (concentration 20, unit not given, time-course reading M137): 2.204 | Th-T fluorescence of Aβ42 with compound, mean of three wells (Fig. 7a source data) (concentration 20, unit not given, time-course reading M138): 2.229 | Th-T fluorescence of Aβ42 with compound, mean of three wells (Fig. 7a source data) (concentration 20, unit not given, time-course reading M139): 2.207 | Th-T fluorescence of Aβ42 with compound, mean of three wells (Fig. 7a source data) (concentration 20, unit not given, time-course reading M140): 2.233 | Th-T fluorescence of Aβ42 with compound, mean of three wells (Fig. 7a source data) (concentration 20, unit not given, time-course reading M141): 2.207 | Th-T fluorescence of Aβ42 with compound, mean of three wells (Fig. 7a source data) (concentration 20, unit not given, time-course reading M142): 2.239 | Th-T fluorescence of Aβ42 with compound, mean of three wells (Fig. 7a source data) (concentration 20, unit not given, time-course reading M143): 2.219 | Th-T fluorescence of Aβ42 with compound, mean of three wells (Fig. 7a source data) (concentration 20, unit not given, time-course reading M144): 2.234 | Th-T fluorescence of Aβ42 with compound, mean of three wells (Fig. 7a source data) (concentration 20, unit not given, time-course reading M145): 2.206 | Th-T fluorescence of Aβ42 with compound, mean of three wells (Fig. 7a source data) (concentration 50, unit not given, time-course reading M129): 1.589 | Th-T fluorescence of Aβ42 with compound, mean of three wells (Fig. 7a source data) (concentration 50, unit not given, time-course reading M130): 1.591 | Th-T fluorescence of Aβ42 with compound, mean of three wells (Fig. 7a source data) (concentration 50, unit not given, time-course reading M131): 1.579 | Th-T fluorescence of Aβ42 with compound, mean of three wells (Fig. 7a source data) (concentration 50, unit not given, time-course reading M132): 1.5892 | Th-T fluorescence of Aβ42 with compound, mean of three wells (Fig. 7a source data) (concentration 50, unit not given, time-course reading M133): 1.602 | Th-T fluorescence of Aβ42 with compound, mean of three wells (Fig. 7a source data) (concentration 50, unit not given, time-course reading M134): 1.607 | Th-T fluorescence of Aβ42 with compound, mean of three wells (Fig. 7a source data) (concentration 50, unit not given, time-course reading M135): 1.608 | Th-T fluorescence of Aβ42 with compound, mean of three wells (Fig. 7a source data) (concentration 50, unit not given, time-course reading M136): 1.609 | Th-T fluorescence of Aβ42 with compound, mean of three wells (Fig. 7a source data) (concentration 50, unit not given, time-course reading M137): 1.626 | Th-T fluorescence of Aβ42 with compound, mean of three wells (Fig. 7a source data) (concentration 50, unit not given, time-course reading M138): 1.633 | Th-T fluorescence of Aβ42 with compound, mean of three wells (Fig. 7a source data) (concentration 50, unit not given, time-course reading M139): 1.6439 | Th-T fluorescence of Aβ42 with compound, mean of three wells (Fig. 7a source data) (concentration 50, unit not given, time-course reading M140): 1.64 | Th-T fluorescence of Aβ42 with compound, mean of three wells (Fig. 7a source data) (concentration 50, unit not given, time-course reading M141): 1.647 | Th-T fluorescence of Aβ42 with compound, mean of three wells (Fig. 7a source data) (concentration 50, unit not given, time-course reading M142): 1.661
